Entries after “also recorded” stand apart in the source; their conditions may differ.
What was measured:
diabetic wound = test: Wound healing effect in diabetic wound animal model (Test Example 8); type: in vivo, mouse
Experimental: 3-week-old male C57BL/6N mice (Koatech, South Korea) were used. After accustoming the mice for a week to normal feed, high-fat diet (Product Data—D12492; 60% kcal, hereinafter referred to as HFD) was given for 4 weeks. Then, a diabetes-induced animal model was prepared by intraperitoneally injecting 40 mg/kg streptozocin (Sigma) once daily for a week. The mice were kept in cages maintained at constant temperature (22±2° C.) and relative humidity (40-60%) with light/dark cycles of 12/12 hours.
6 mice of the normal control group and 6 mice per test group of the diabetes-induced animal model of Test Example 7 were prepared. The hair on the back was removed and a 1.5×1.5 cm^2 wound was made on the hair-removed region.
For the normal control group, only 20 μL of an emulsion solution (Kollipore®EL:Tween 80:PEG 400 at a mixing weight ratio of 80:6:14) was applied to the wound site once daily for 14 days. For the negative control group, only 20 μL of the emulsion solution (Kollipore®EL:Tween 80:PEG 400 at a mixing weight ratio of 80:6:14) was applied to the wound site once daily for 14 days. For the test group, 20 μL of A3334 (Example 1) was applied to the wound site once daily for 14 days. Then, the wound site of the animal model was photographed and the wound area was measured on days 0, 1, 3, 7, 10 and 14 (FIG. 10). On day 14, after euthanizing the mouse with carbon dioxide, the wound site tissue was harvested and the histological structure was observed.
A3334 (Example 1) was prepared by preparing an emulsion solution by mixing Kollipore®EL:Tween 80:PEG 400 at a mixing weight ratio of 80:6:14 and then dissolving the A3334 indirubin derivative synthesized in Example 1 to a concentration of 0.5 mM.
The wound closure rate (%) was calculated according to Equation 1. Wound closure rate (%)=[initial wound area on day 0−wound area on measurement day]/[initial wound area on day 0]×100 [Equation 1] […]

mouse acute wound [1] = test: Wound healing effect of extract and indirubin derivative mixtures in mouse acute wound (Test Example 6); type: in vivo; details: mouse acute wound tissue, fluorescence staining
Experimental: Wound healing-promoting effect was investigated after treating an animal model with the indirubin derivative of Example 1 (0.5 mM), the indirubin derivative of Example 2 (0.5 mM) or the mixtures of Examples 12 and 13 (0.5 mM indirubin derivative mixed with 1 μg/mL Euodia sutchuenensis Dode extract).
The hair on the back of 7-week-old C3H mouse that entered the resting period was removed and a 1.5×1.5 cm^2 wound was made on the hair-removed region. A sample was applied to a positive control group, once daily for 12 days. After measuring wound size of the experimental animal on days 0 and 12, the wound tissue was fixed by immersing in 4% paraformaldehyde, embedded in paraffin and then sliced into 4 μm thickness. The sliced tissue was deparaffinized, rehydrated and then the degree of re-epithelialization was compared. Masson's trichrome staining and Picrosirius red staining were conducted for evaluation of the degree of collagen synthesis. For Masson's trichrome staining, a slide was immersed in Weigert's iron hematoxylin solution for 10 minutes and in Biebrich scarlet-acid fuchsin and aniline blue for 5 minutes each. […] The sliced skin tissue was fluorescence-stained using β-catenin, PCNA, keratin 14 and collagen I antibodies and was observed using a fluorescence microscope (FIG. 9a). […]

mouse acute wound [2] = test: Wound healing and collagen synthesis in mouse acute wound (Test Example 2); type: in vivo
Experimental: The wound healing-promoting effect of the indirubin derivatives prepared in Examples 1 and 2, the indirubin derivative of Comparative Example 1 (10) and EGF, known as an existing wound healing agent, as a positive control group was investigated through animal experiments.
The hair on the back of 7-week-old C3H mouse that entered the resting period was removed and a 1.5×1.5 cm^2 wound was made on the hair-removed region. 20 μL of a vehicle (10% DMSO, 45% ethanol, 18% propylene glycol, 27% water) and the indirubin derivative of Comparative Example 1 (10) were applied to a control group and a comparison group, respectively, once daily for 12 days. For the positive control group, 100 μM EGF was applied once daily for 12 days. For a first test group, 20 μL of the indirubin derivative of Example 2 (A3051) was applied once daily for 12 days. For a second test group, 20 μL of the indirubin derivative of Example 1 (A3334) was applied once daily for 12 days.
The tissue of each experimental mouse was fixed by immersing in 4% paraformaldehyde, embedded in paraffin and then sliced into 4 μm thickness. The sliced tissue was deparaffinized, rehydrated and then stained with Masson's trichrome and Picrosirius red for evaluation of the degree of collagen synthesis. For Masson's trichrome staining, a slide was placed in Weigert's iron hematoxylin solution for 10 minutes and in Biebrich scarlet-acid fuchsin and aniline blue for 5 minutes each. For Picrosirius red staining, a slide was placed in Weigert's solution for 8 minutes and in Picrosirius red for 1 hour.

[3] = C3H mouse acute wound, once daily for 12 days, vs EGF

For `COc1ccc2c(c1)/C(=C1/Nc3ccccc3/C1=N\O)C(=O)N2` [Example 1, 5-methoxylindirubin-3′-oxime], which “healing of the wound site (wound closure rate)” value (diabetic wound; diabetes-induced C57BL/6N mouse, 1.5×1.5 cm^2 wound, 20 μL of 0.5 mM once daily for 14 days) is on record?
The value was “healing of the wound site was promoted similarly to the normal control group”.

And the “re-epithelialization (H&E)” value (diabetic wound; diabetes-induced mouse, 14 days)?
The value was “fast re-epithelialization”.

And the “collagen synthesis (Van Gieson's stain, Picrosirius red)” value (diabetic wound; diabetes-induced mouse, vs normal and negative control group)?
Its value is “increased collagen synthesis”.

And the “expression of β-catenin, PCNA, keratin 14 and collagen I” value (mouse acute wound [1])?
Its value is “slightly lower as compared to the positive control group”.

And the “quantity of collagen (Masson's trichrome, Picrosirius red, van Gieson's stain)” value (mouse acute wound [2]; C3H mouse acute wound tissue, vs control group, Comparative Example 1, positive control group)?
Its value is “remarkably increases the quantity of collagen”.

And the “re-epithelialization of acute wound” value (mouse acute wound [2]; [3])?
The value was “re-epithelialized comparably to or faster than the positive control group EGF”.

And the “scar-reducing effect, repair of the epidermal layer of skin” value (mouse acute wound [2]; [3])?
Its value is “repairing the epidermal layer of skin without remaining scars”.

What about the “wound repair effect as compared to the positive control group EGF” value (mouse acute wound [2]; C3H mouse, 1.5×1.5 cm^2 wound, 20 μL once daily for 12 days, EGF 100 μM, listed as A3334) of the same compound?
Its value is “slightly superior wound repair effect; also recorded: slightly better wound repair effect”.

Reference: patent US11773081B2, “Pharmaceutical composition for preventing or treating wound, comprising indirubin derivative as active ingredient” (CK Regeon Inc., priority 2018, dated 2023)
